Columns and labels:
[1] = system: Oct4-GFP expressing I-iPS cells; experiment: Oct4-GFP reporter activity of partially reprogrammed cells cultured in Fgf2 and activin, with activin receptor inhibitor; type: cell-based, mouse; settings: serum free
From the text: Culture of FACS purified GFP expressing incomplete (I) iPS cells in Fgf2 and activin (left) and subsequently on addition of activin receptor inhibitor SB431542 (right). To further investigate the phenotype of these partially reprogrammed cells we assessed Oct4 reporter activity in different culture environments. In conventional ES cell culture using the self renewal cytokine Leukaemia Inhibitory Factor (LIF) and serum in presence or absence of feeders, Oct4-GFP expression was not maintained. In contrast, reporter expression stabilized when cells were cultured serum free in the presence of Fgf2 and activin (FIG. 2). These are conditions used for the propagation of EpiSCs derived from post-implantation embryos (Brons et al., 2007; Tesar et al., 2007). […] We conclude that NS cells are efficiently converted by the reprogramming factors into a heterogeneous cell population with certain properties of EpiSCs rather than ES cells.

pre-iPS cells = experiment: Adding inhibitors to pre-iPS cells in the presence of foetal calf serum plus LIF; type: cell-based, mouse; settings: for effect on Oct4-GFP activation: foetal calf serum plus LIF, inhibitor alone
From the text: We also examined the effect of adding inhibitors in the presence of foetal calf serum plus LIF. The addition of 2i induced stable activation of Oct4-GFP in around 10% of emerging colonies. […] The reduced frequency compared with serum-free 2i culture may be because the ability of PD0325901 to suppress Erk activation is counteracted by serum factors.

Compound | effect of inhibitor on Oct4-GFP reporter activity and cells [1] | effect on Oct4-GFP activation (pre-iPS cells) | expression of Nanog and Rex1 (pre-iPS cells; cells expanded in serum and LIF)
NC(=O)c1ccc(-c2nc(-c3ccc4c(c3)OCO4)c(-c3ccccn3)[nH]2)cc1 [SB43154212, SB431542] | loss of reporter activity, cell death and differentiation |  | 
Cc1c[nH]c(-c2cnc(NCCNc3ccc(C#N)cn3)nc2-c2ccc(Cl)cc2Cl)n1 [GSK3 inhibitor, CHIR99021] |  | no discernible effect | 
O=C(NOC[C@H](O)CO)c1ccc(F)c(F)c1Nc1ccc(I)cc1F [MEK inhibitor, PD0325901] |  | comparable to 2i | acquired expression of Nanog and Rex1

From patent US20100330677A1, “Improved Reprogramming of Mammalian Cells, and Cells Obtained” (Cambridge Enterprise Limited, priority 2008, published 2010)
